In ChEMBL document CHEMBL1201862, “PubChem BioAssay data set” (2004):
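1) Cells in 96-well plates. 2) Compound, 48 h, 5 concentrations. 3) Linear interpolation between surrounding doses. 4) Unreached endpoint = highest concentration. Here, GI50 denotes the concentration required for 50% inhibition of growth.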 Active and inactive are the calls of the source. No stated cut-off is given here; in the data, active = GI50 up to about 1.1 µM and inactive = higher.

Key:
Assay in all cases: inhibition of tumour cell growth, NCI panel, 48 h
UACC-257 = system: UACC-257
M14 = system: M14
SF-295 = system: SF-295
SK-MEL-28 = system: SK-MEL-28
SNB-75 = system: SNB-75
UACC-62 = system: UACC-62
HOP-92 = system: HOP-92
OVCAR-3 = system: OVCAR-3
NCI-H460 = system: NCI-H460
SF-268 = system: SF-268
U-251 = system: U-251
CCRF-CEM = system: CCRF-CEM
IGROV-1 = system: IGROV-1
NCI-H226 = system: NCI-H226
HOP-62 = system: HOP-62
OVCAR-4 = system: OVCAR-4

Measured: GI50

N#Cc1ccccc1NC(=O)C(=O)C1NC(=S)NC1=O (stereo unspecified)
inactive: UACC-257 > 100 µM | M14 > 100 µM | SF-295 > 100 µM | SK-MEL-28 > 100 µM | SNB-75 > 100 µM | UACC-62 > 100 µM | HOP-92 > 100 µM | OVCAR-3 > 100 µM | NCI-H460 > 100 µM | SF-268 > 100 µM | U-251 > 100 µM | CCRF-CEM > 100 µM | IGROV-1 > 100 µM | NCI-H226 > 100 µM | HOP-62 > 100 µM | OVCAR-4 > 100 µM

CCn1c2c(c3ccccc31)[C@@H](c1ccc(Cl)cc1)CC1C(=O)N(c3ccccc3)C(=O)C21 (stereo partly specified)
inactive: UACC-257 > 100 µM | M14 > 100 µM | SF-295 59.3 µM | SK-MEL-28 > 100 µM | SNB-75 71.9 µM | UACC-62 51.2 µM | HOP-92 27.7 µM | OVCAR-3 55 µM | NCI-H460 67.1 µM | SF-268 77.8 µM | U-251 52.6 µM | CCRF-CEM 63.2 µM | IGROV-1 > 100 µM | NCI-H226 45.6 µM | HOP-62 85.5 µM | OVCAR-4 > 100 µM

O=C(CC1(O)C(=O)Nc2ccccc21)c1ccc(Cl)c(Cl)c1 (stereo unspecified)
inactive: M14 > 100 µM | SF-295 > 100 µM | SK-MEL-28 > 100 µM | SNB-75 > 100 µM | UACC-62 > 100 µM | HOP-92 > 100 µM | NCI-H460 > 100 µM | SF-268 > 100 µM | U-251 > 100 µM | CCRF-CEM 63.8 µM | IGROV-1 > 100 µM | NCI-H226 > 100 µM | OVCAR-4 > 100 µM

CC1=C(c2cc(C(=O)Nc3cc(C)ccc3C)nc(N)n2)Sc2ccccc2N1
inactive: UACC-257 > 100 µM | M14 > 100 µM | SF-295 > 100 µM | SK-MEL-28 > 100 µM | SNB-75 > 100 µM | UACC-62 > 100 µM | HOP-92 > 100 µM | OVCAR-3 > 100 µM | NCI-H460 > 100 µM | SF-268 > 100 µM | U-251 > 100 µM | CCRF-CEM > 100 µM | IGROV-1 > 100 µM | NCI-H226 > 100 µM | HOP-62 > 100 µM | OVCAR-4 > 100 µM

C=CCc1cc(OC)c2c(c1)C(OC)CC(c1ccc(OC)c(OC)c1)O2 (stereo unspecified)
inactive: UACC-257 > 100 µM | M14 78.2 µM | SF-295 > 100 µM | SK-MEL-28 > 100 µM | SNB-75 54.8 µM | UACC-62 > 100 µM | OVCAR-3 > 100 µM | NCI-H460 > 100 µM | SF-268 73.8 µM | U-251 > 100 µM | CCRF-CEM > 100 µM | IGROV-1 > 100 µM | HOP-62 > 100 µM | OVCAR-4 > 100 µM

Cc1ccc([N+](=O)[O-])cc1NC(=O)/C(=N/NC(=S)NN)C1SC(=S)NC1=O (stereo unspecified)
inactive: UACC-257 > 100 µM | M14 > 100 µM | SF-295 > 100 µM | SK-MEL-28 > 100 µM | SNB-75 > 100 µM | UACC-62 > 100 µM | HOP-92 > 100 µM | NCI-H460 > 100 µM | SF-268 > 100 µM | U-251 > 100 µM | CCRF-CEM 40.2 µM | IGROV-1 > 100 µM | NCI-H226 > 100 µM | HOP-62 > 100 µM | OVCAR-4 > 100 µM

COC(=O)Nc1nc2cc(Br)ccc2[nH]1
inactive: UACC-257 > 100 µM | M14 43.9 µM | SF-295 30.7 µM | SK-MEL-28 > 100 µM | SNB-75 56 µM | UACC-62 74.5 µM | HOP-92 > 100 µM | OVCAR-3 28.5 µM | NCI-H460 24.9 µM | SF-268 > 100 µM | U-251 22.8 µM | CCRF-CEM 32.2 µM | IGROV-1 35.9 µM | NCI-H226 > 100 µM | HOP-62 57.3 µM | OVCAR-4 > 100 µM

C/N=C1\CC2c3cc(OC)c(OC)cc3CCN2C2=C1C(=O)CC(C)(C)C2 (stereo unspecified)
inactive: UACC-257 > 100 µM | SF-295 > 100 µM | SK-MEL-28 > 100 µM | SNB-75 > 100 µM | HOP-92 > 100 µM | OVCAR-3 > 100 µM | NCI-H460 > 100 µM | SF-268 > 100 µM | U-251 > 100 µM | CCRF-CEM > 100 µM | NCI-H226 > 100 µM

COc1c(C)cc2c(C(C)C)c(O)c(O)c(C=O)c2c1O
inactive: UACC-257 21.4 µM | M14 23.2 µM | SF-295 28.8 µM | SK-MEL-28 22.4 µM | SNB-75 25.4 µM | UACC-62 20.6 µM | HOP-92 35.3 µM | OVCAR-3 18.9 µM | NCI-H460 25.9 µM | SF-268 38.4 µM | U-251 18 µM | CCRF-CEM 18.4 µM | IGROV-1 30.5 µM | NCI-H226 18.2 µM | OVCAR-4 17.2 µM

COC(=O)c1c(OC(=O)c2ccccc2)noc1CC(=O)OC1C=CCCC1 (stereo unspecified)
inactive: UACC-257 95.5 µM | M14 > 100 µM | SK-MEL-28 > 100 µM | SNB-75 > 100 µM | UACC-62 28.6 µM | OVCAR-3 > 100 µM | NCI-H460 > 100 µM | SF-268 > 100 µM | U-251 > 100 µM | CCRF-CEM 80 µM | IGROV-1 > 100 µM | NCI-H226 > 100 µM | HOP-62 > 100 µM | OVCAR-4 > 100 µM

CCCCC(C(=O)CCC(=O)Nc1ccc(Cl)c(Cl)c1)C(=O)C(C)C (stereo unspecified)
inactive: UACC-257 > 100 µM | M14 82.8 µM | SF-295 85.3 µM | SK-MEL-28 > 100 µM | SNB-75 21.6 µM | UACC-62 19.6 µM | HOP-92 > 100 µM | OVCAR-3 > 100 µM | NCI-H460 > 100 µM | SF-268 > 100 µM | U-251 > 100 µM | CCRF-CEM > 100 µM | IGROV-1 > 100 µM | NCI-H226 > 100 µM | HOP-62 > 100 µM | OVCAR-4 > 100 µM

NN/C(Cc1ccccc1)=N\NO
inactive: UACC-257 > 100 µM | M14 63.8 µM | SF-295 > 100 µM | SK-MEL-28 > 100 µM | SNB-75 > 100 µM | UACC-62 56.2 µM | HOP-92 > 100 µM | OVCAR-3 > 100 µM | NCI-H460 > 100 µM | SF-268 > 100 µM | CCRF-CEM 39.8 µM | IGROV-1 > 100 µM | NCI-H226 > 100 µM | OVCAR-4 > 100 µM

CC[C@@H]1C[C@H]2CC3c4[nH]c5ccc(O)cc5c4CCN(C2)C31
inactive: UACC-257 > 100 µM | M14 > 100 µM | SF-295 > 100 µM | SK-MEL-28 > 100 µM | SNB-75 > 100 µM | UACC-62 > 100 µM | HOP-92 36.8 µM | OVCAR-3 > 100 µM | NCI-H460 > 100 µM | SF-268 > 100 µM | U-251 > 100 µM | CCRF-CEM > 100 µM | IGROV-1 > 100 µM | NCI-H226 > 100 µM | HOP-62 > 100 µM
